Values quoted from earlier work in PubChem BioAssay AID1259409 (Chemical Carcinogenesis Research Information System (CCRIS), 2018).

Test system: rodent chemically induced tumor inhibition, incidence and multiplicity
Test: CCRIS tumor inhibitor studies

Cc1csc(NC(=O)C(C(=O)OC(C)C)=C2SCS2)n1
tumour outcome (control, treated, inhibition, significance) (Carcinogen: BENZO[A]PYRENE [50-32-8], Dose [Inhibitor]: 0, 150 MG/KG BW IN TRIOCTANOIN 1 D AND 2 HR PRIOR TO CARCINOGEN DOSE (STUDY DURATION: 21 WK), Route [Inhibitor]: GAVAGE, Species: MOUSE, Strain/Sex: CD-1/FEMALE, Target Tissue: Type of Lesion: SKIN: PAPILLOMA, Dose [Carcinogen]: 0.3 UMOL IN 0.2 ML ACETONE ONCE, Promoter: 12-O-TETRADECANOYLPHORBOL-13-ACETATE [16561-29-8]): 92%, 73%, 21%, not calculated | tumour outcome (control, treated, inhibition, significance) (Carcinogen: BENZO[A]PYRENE [50-32-8], Dose [Inhibitor]: 150 MG/KG IN 10 µL TRIOCTANOIN ONCE 1 D AND 2 HR PRIOR TO CARCINOGEN DOSE (STUDY DURATION: 21 WK), Route [Inhibitor]: GAVAGE, Species: MOUSE, Strain/Sex: CD-1/FEMALE, Target Tissue: Type of Lesion: SKIN: PAPILLOMA, Dose [Carcinogen]: 0.3 UMOL IN 0.2 ML ACETONE ONCE (STUDY DURATION: 21 WK), Promoter: 12-O-TETRADECANOYLPHORBOL-13-ACETATE [16561-29-8]): 92%, 75%, 18%, not calculated | tumour outcome (control, treated, inhibition, significance) (Carcinogen: VINYL CARBAMATE, 15805-73-9, Dose [Inhibitor]: 0, 150 MG/KG BW ONCE AT 2 HR AND 1 D PRIOR TO CARCINOGEN DOSE (STUDY DURATION: 22 WK), Route [Inhibitor]: GAVAGE, Species: MOUSE, Strain/Sex: CD-1/FEMALE, Target Tissue: Type of Lesion: SKIN: PAPILLOMA, Dose [Carcinogen]: 11.5 UMOL IN 0.2 ML ACETONE ONCE, Promoter: 12-O-TETRADECANOYLPHORBOL-13-ACETATE, 16561-29-8): 58%, 37%, 36%, not calculated

CSCC[C@H](NC(=O)[C@@H](N)Cc1c[nH]c2ccccc12)C(=O)N[C@@H](CC(=O)O)C(=O)N[C@@H](Cc1ccccc1)C(N)=O
tumour outcome (control, treated, inhibition, significance) (Carcinogen: N-METHYL-N'-NITRO-N-NITROSOGUANIDINE, 70-25-7, Dose [Inhibitor]: 1 MG/KG BW IN DEPOT FORM 1/2 D BEGINNING 1 WK POST LAST CARCINOGEN DOSE FOR DURATION OF STUDY (STUDY DURATION: 52 WK), Route [Inhibitor]: SUBCUTANEOUS, Species: RAT, Strain/Sex: WISTAR/MALE, Target Tissue: Type of Lesion: STOMACH: ADENOCARCINOMA, Dose [Carcinogen]: 50 UG/ML IN DRINKING WATER FOR 25 WK, Promoter: NONE USED): 12/19 (63%), 6/19 (32%), 49%, p<0.05

COc1ccc(-c2cc(=S)ss2)cc1
tumour outcome (control, treated, inhibition, significance) (Carcinogen: 7,12-DIMETHYLBENZ[A]ANTHRACENE, 57-97-6, Dose [Inhibitor]: 0, 200 PPM IN DIET FOR DURATION OF STUDY BEGINNING 1 WK PRIOR TO CARCINOGEN DOSE (STUDY DURATION: 107 D), Route [Inhibitor]: ORAL, Species: RAT, Strain/Sex: SPRAGUE-DAWLEY/FEMALE, Target Tissue: Type of Lesion: MAMMARY GLAND: ADENOCARCINOMA, Dose [Carcinogen]: 12 MG ONCE, Promoter: NONE USED): 80%, 75%, 6%, not significant | tumour outcome (control, treated, inhibition, significance) (Carcinogen: 7,12-DIMETHYLBENZ[A]ANTHRACENE, 57-97-6, Dose [Inhibitor]: 0, 400 PPM IN DIET FOR DURATION OF STUDY BEGINNING 1 WK PRIOR TO CARCINOGEN DOSE (STUDY DURATION: 107 D), Route [Inhibitor]: ORAL, Species: RAT, Strain/Sex: SPRAGUE-DAWLEY/FEMALE, Target Tissue: Type of Lesion: MAMMARY GLAND: ADENOCARCINOMA, Dose [Carcinogen]: 12 MG ONCE, Promoter: NONE USED): 80%, 85%, -6%, not significant | tumour outcome (control, treated, inhibition, significance) (Carcinogen: AZOXYMETHANE, 25843-45-2, Dose [Inhibitor]: 0, 100 PPM IN DIET BEGINNING 2 WK PRIOR TO CARCINOGEN TREATMENT AND CONTINUING FOR DURATION OF STUDY (STUDY DURATION: 56, Route [Inhibitor]: ORAL, Species: RAT, Strain/Sex: F344/MALE, Target Tissue: Type of Lesion: COLON: INVASIVE ADENOCARCINOMA, Dose [Carcinogen]: 15 MG/KG 1/WK FOR 2 WK, Promoter: NONE USED): 34%, 11%, 68%, p<0.05 | tumour outcome (control, treated, inhibition, significance) (Carcinogen: AZOXYMETHANE, 25843-45-2, Dose [Inhibitor]: 0, 100 PPM IN DIET BEGINNING 2 WK PRIOR TO CARCINOGEN TREATMENT AND CONTINUING FOR DURATION OF STUDY (STUDY DURATION: 56, Route [Inhibitor]: ORAL, Species: RAT, Strain/Sex: F344/MALE, Target Tissue: Type of Lesion: COLON: NONINVASIVE ADENOCARCINOMA, Dose [Carcinogen]: 15 MG/KG 1/WK FOR 2 WK, Promoter: NONE USED): 53%, 47%, 11%, not significant | tumour outcome (control, treated, inhibition, significance) (Carcinogen: AZOXYMETHANE, 25843-45-2, Dose [Inhibitor]: 0, 200 PPM IN DIET BEGINNING 2 WK PRIOR TO CARCINOGEN TREATMENT AND CONTINUING FOR DURATION OF STUDY (STUDY DURATION: 56, Route [Inhibitor]: ORAL, Species: RAT, Strain/Sex: F344/MALE, Target Tissue: Type of Lesion: COLON: INVASIVE ADENOCARCINOMA, Dose [Carcinogen]: 15 MG/KG 1/WK FOR 2 WK, Promoter: NONE USED): 34%, 8%, 76%, p<0.01 | tumour outcome (control, treated, inhibition, significance) (Carcinogen: AZOXYMETHANE, 25843-45-2, Dose [Inhibitor]: 0, 200 PPM IN DIET BEGINNING 2 WK PRIOR TO CARCINOGEN TREATMENT AND CONTINUING FOR DURATION OF STUDY (STUDY DURATION: 56, Route [Inhibitor]: ORAL, Species: RAT, Strain/Sex: F344/MALE, Target Tissue: Type of Lesion: COLON: NONINVASIVE ADENOCARCINOMA, Dose [Carcinogen]: 15 MG/KG 1/WK FOR 2 WK, Promoter: NONE USED): 53%, 30%, 43%, p<0.05

O=C(/C=C/c1ccccc1)c1ccccc1O
tumour outcome (control, treated, inhibition, significance) (Carcinogen: 4-NITROQUINOLINE-1-OXIDE, 56-57-5, Dose [Inhibitor]: 0, 500 PPM IN DIET FOR 10 WK BEGINNING 1 WK PRIOR TO CARCINOGEN DOSE (STUDY DURATION: 32 WK), Route [Inhibitor]: ORAL, Species: RAT, Strain/Sex: F344/MALE, Target Tissue: Type of Lesion: TONGUE: CARCINOMA, Dose [Carcinogen]: 20 PPM IN DRINKING WATER FOR 8 WK, Promoter: NONE USED): 9/15 (60%), 2/16 (13%), 78%, p<0.05 | tumour outcome (control, treated, inhibition, significance) (Carcinogen: 4-NITROQUINOLINE-1-OXIDE, 56-57-5, Dose [Inhibitor]: 0, 500 PPM IN DIET FOR 10 WK BEGINNING 1 WK PRIOR TO CARCINOGEN DOSE (STUDY DURATION: 32 WK), Route [Inhibitor]: ORAL, Species: RAT, Strain/Sex: F344/MALE, Target Tissue: Type of Lesion: TONGUE: PAPILLOMA, Dose [Carcinogen]: 20 PPM IN DRINKING WATER FOR 8 WK, Promoter: NONE USED): 4/15 (27%), 1/16 (6%), 78%, not significant | tumour outcome (control, treated, inhibition, significance) (Carcinogen: 4-NITROQUINOLINE-1-OXIDE, 56-57-5, Dose [Inhibitor]: 0, 500 PPM IN DIET FOR 22 WK BEGINNING 1 WK POST CARCINOGEN TREATMENT (STUDY DURATION: 32 WK), Route [Inhibitor]: ORAL, Species: RAT, Strain/Sex: F344/MALE, Target Tissue: Type of Lesion: TONGUE: CARCINOMA, Dose [Carcinogen]: 20 PPM IN DRINKING WATER FOR 8 WK, Promoter: NONE USED): 9/15 (60%), 3/16 (19%), 68%, p<0.05 | tumour outcome (control, treated, inhibition, significance) (Carcinogen: 4-NITROQUINOLINE-1-OXIDE, 56-57-5, Dose [Inhibitor]: 0, 500 PPM IN DIET FOR 22 WK BEGINNING 1 WK POST CARCINOGEN TREATMENT (STUDY DURATION: 32 WK), Route [Inhibitor]: ORAL, Species: RAT, Strain/Sex: F344/MALE, Target Tissue: Type of Lesion: TONGUE: PAPILLOMA, Dose [Carcinogen]: 20 PPM IN DRINKING WATER FOR 8 WK, Promoter: NONE USED): 4/15 (27%), 0/16 (0%), 100%, p<0.05
